From publication PMC7707423 (Acta biomaterialia, 2017)

What was measured:
[1] = biological target: mini-IGFBP-5 binding pocket (Homo sapiens) (UniProt P24593); details: cited from earlier work
IGFBP-5 (Homo sapiens) = IGFBP-5 (Homo sapiens) (UniProt P24593); details: cited from earlier work
IGF-I [2] = test: Immunohistochemistry / retention of IGF-I in chondrocyte constructs; assay type: cell-based, Bos taurus; details: 100 μM of binding sites
chondrocytes [3] = test: Hydroxyproline; assay type: cell-based, Bos taurus; details: 10, 33 and 100 μM binding sites; p<0.001 by 2-way ANOVA
chondrocytes [4] = test: GAG synthesis by encapsulated chondrocytes; assay type: cell-based, Bos taurus; details: control (empty vector) chondrocytes; 0-100 μM KPLHALL, 30 days
IGF-I [5] = biological target: IGF-I (Homo sapiens, UniProt P05019); test: Surface plasmon resonance, IGF-I binding to alginate materials; details: SPR
type II collagen = test: Immunohistochemistry of constructs for type II collagen; assay type: cell-based, Bos taurus; details: particularly at higher concentrations of KPLHALL

Chain of IGF-I (Homo sapiens, UniProt P05019) (P05019 49-118 limits assumed): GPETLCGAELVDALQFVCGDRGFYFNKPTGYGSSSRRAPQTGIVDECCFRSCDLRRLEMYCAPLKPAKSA
Chain of IGF-I (from UniProt P05019) (P05019 49-118): as the sequence (P05019 49-118 limits assumed) above
Chain of IGFBP-5 (Homo sapiens) (P24593 21-272): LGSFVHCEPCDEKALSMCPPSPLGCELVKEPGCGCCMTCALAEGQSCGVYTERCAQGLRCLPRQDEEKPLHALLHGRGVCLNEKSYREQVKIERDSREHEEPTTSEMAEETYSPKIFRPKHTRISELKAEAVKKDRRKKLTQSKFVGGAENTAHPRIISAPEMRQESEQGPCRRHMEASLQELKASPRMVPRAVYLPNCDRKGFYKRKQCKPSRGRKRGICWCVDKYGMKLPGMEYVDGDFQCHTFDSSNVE
Chain of mini-IGFBP-5 binding pocket (Homo sapiens) (P24593 60-112): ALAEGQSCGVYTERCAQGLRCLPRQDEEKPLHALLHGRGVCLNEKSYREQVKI

| Substance | Kd [1] [nM] | Kd (IGFBP-5 (Homo sapiens)) [nM] | IGF-I immunostaining at day 30 (IGF-I [2]) | effect on HYPRO of binding-site concentration (chondrocytes [3]) | GAG synthesis enhancement (maximum of steady state, normalized to alginate 0 μM) (chondrocytes [4]) [fold] | KD shift of KPLHALL alginate compared to alginate (IGF-I [5]; KD 50 nM vs 513 nM) [times] | enhancement of binding affinity for IGF-I by KPLHALL modification (IGF-I [5]; vs unmodified alginate) | type II collagen immunostaining at day 30 (type II collagen) |
| --- | --- | --- | --- | --- | --- | --- | --- | --- |
| IGF-I (from UniProt P05019) | 37 | 3.7 | – | – | – | – | – | – |
| GGG-KPLALL (KPLHALL) [KPLHALL alginate] | – | – | highest immunolocalization of IGF-I | greater in concentrations of 10, 33 and 100 μM binding sites | 1.6 | 10 | more than 10 fold | robust staining for type II collagen |
